What all share (assay type): functional, cell-based
Data set [1] has as its target T1, Solute carrier organic anion transporter family member 1A1 (Rattus norvegicus, UniProt P46720).
T1 sequence (P46720 whole entry): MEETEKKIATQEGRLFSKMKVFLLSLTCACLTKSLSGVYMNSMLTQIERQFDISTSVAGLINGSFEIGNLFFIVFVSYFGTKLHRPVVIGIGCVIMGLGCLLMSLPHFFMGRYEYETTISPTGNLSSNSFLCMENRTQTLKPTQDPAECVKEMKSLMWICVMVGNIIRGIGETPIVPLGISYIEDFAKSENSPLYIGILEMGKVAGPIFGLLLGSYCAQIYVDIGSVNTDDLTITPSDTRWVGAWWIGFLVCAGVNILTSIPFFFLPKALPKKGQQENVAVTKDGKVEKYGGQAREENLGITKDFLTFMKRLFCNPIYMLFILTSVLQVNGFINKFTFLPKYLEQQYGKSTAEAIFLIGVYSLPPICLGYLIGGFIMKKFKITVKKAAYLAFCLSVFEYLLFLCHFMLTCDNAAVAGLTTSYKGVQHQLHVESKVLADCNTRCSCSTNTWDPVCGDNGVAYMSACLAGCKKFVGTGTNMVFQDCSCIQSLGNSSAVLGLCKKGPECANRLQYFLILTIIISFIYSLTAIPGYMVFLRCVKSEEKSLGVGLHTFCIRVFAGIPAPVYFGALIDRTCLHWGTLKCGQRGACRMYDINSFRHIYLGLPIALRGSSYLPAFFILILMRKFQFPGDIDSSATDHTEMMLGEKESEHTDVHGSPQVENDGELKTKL
The data set is described as follows: TP_TRANSPORTER: inhibition of Temocaprilat uptake (Temocaprilat: 0.1 uM, DBSB: 100 uM) in Oatp1-expressing COS-7 cells. Particulars: monkey, cos-7, 100 µM.

The target in data set [2] is T1, Solute carrier organic anion transporter family member 1A1. The data set is described as follows: TP_TRANSPORTER: inhibition of Temocaprilat uptake (Temocaprilat: 0.1 uM, E217betaG: 10 uM) in Oatp1-expressing COS-7 cells. Particulars: monkey, cos-7, 10 µM.
Substrate in data set [3]: O=C(O)CN1C[C@@H](c2cccs2)SC[C@H](N[C@@H](CCc2ccccc2)C(=O)O)C1=O
The data set is described as follows: (§1) TP_TRANSPORTER: uptake in Oatp1-expressing COS-7 cells.

Substrate in data set [4]: C[C@]12CC[C@@H]3c4ccc(O)cc4CC[C@H]3[C@@H]1CC[C@@H]2O[C@@H]1O[C@H](C(=O)O)[C@@H](O)[C@H](O)[C@H]1O
The data set is described as §1.

This is an account of results in ChEMBL document CHEMBL2073834, “Transport of temocaprilat into rat hepatocytes: role of organic anion transporting polypeptide” (J Pharmacol Exp Ther, 1998).

For orientation: Km means the substrate concentration at which the rate is half of its maximum.

As to `O=C1OC(c2ccc(OS(=O)(=O)O)cc2)(c2ccc(OS(=O)(=O)O)cc2)c2c(Br)ccc(Br)c21` [DIBROMOSULFOPHTHALEIN], the Activity result in data set [1] is “inhibitor [(at a rough estimate) 5 % of control]”.

On to `C[C@]12CC[C@@H]3c4ccc(O)cc4CC[C@H]3[C@@H]1CC[C@@H]2O[C@@H]1O[C@H](C(=O)O)[C@@H](O)[C@H](O)[C@H]1O` [ESTRADIOL 17B GLUCURONIDE], for which, in data set [2], the Activity entry is “inhibitor [(at a rough estimate) 55 % of control]”.

B1: Solute carrier organic anion transporter family member 1A1 (Rattus norvegicus) (protein)
chain: MEETEKKIATQEGRLFSKMKVFLLSLTCACLTKSLSGVYMNSMLTQIERQFDISTSVAGLINGSFEIGNLFFIVFVSYFGTKLHRPVVIGIGCVIMGLGCLLMSLPHFFMGRYEYETTISPTGNLSSNSFLCMENRTQTLKPTQDPAECVKEMKSLMWICVMVGNIIRGIGETPIVPLGISYIEDFAKSENSPLYIGILEMGKVAGPIFGLLLGSYCAQIYVDIGSVNTDDLTITPSDTRWVGAWWIGFLVCAGVNILTSIPFFFLPKALPKKGQQENVAVTKDGKVEKYGGQAREENLGITKDFLTFMKRLFCNPIYMLFILTSVLQVNGFINKFTFLPKYLEQQYGKSTAEAIFLIGVYSLPPICLGYLIGGFIMKKFKITVKKAAYLAFCLSVFEYLLFLCHFMLTCDNAAVAGLTTSYKGVQHQLHVESKVLADCNTRCSCSTNTWDPVCGDNGVAYMSACLAGCKKFVGTGTNMVFQDCSCIQSLGNSSAVLGLCKKGPECANRLQYFLILTIIISFIYSLTAIPGYMVFLRCVKSEEKSLGVGLHTFCIRVFAGIPAPVYFGALIDRTCLHWGTLKCGQRGACRMYDINSFRHIYLGLPIALRGSSYLPAFFILILMRKFQFPGDIDSSATDHTEMMLGEKESEHTDVHGSPQVENDGELKTKL
Regarding B1, the Km is 46.7 µM in data set [3] and 11 µM in data set [4].
